{"source": "patent US20250212873A1", "about": "“VOLATILE HDAC INHIBITORS FOR THERAPEUTIC AND PLANT APPLICATIONS” (The Regents of the University of California, priority 2022, published 2025)", "key": {"[1]": {"tested_on": "Arabidopsis thaliana seedlings", "assay": "Odor Exposure assay, Arabidopsis thaliana seedlings (root and leaf development)", "assay_type": "in vivo", "experimental": "The Odor Exposure assay consists of controlled exposure of volatile odor compounds to model plant Arabidopsis within enclosed aquariums and similar growth conditions (23° C. with a 12-hour light/dark cycle). For Arabidopsis, seedlings were aligned on agar plates for growth after a 4-day cold treatment process. The agar plates with seedlings were then placed in enclosed aquariums with moist paper towels soaked in 10 ml of DI water for humidity. The plates were placed along the wall, approximately 12 cm from odor dispensers which resided in the center of the glass tank.\nThe test compound odor dispensers, consisting of (60×15 mm) polystyrene Petri dishes containing 2 ml of 1% v/v in PO, are replaced at the 3.5, 5, and 6-day time mark during the 7-day experiment. Root growth is marked during each time mark and the plates were imaged. The plants are to be collected after the 7-day exposure, photographed, and the leaves/roots carefully dissected separated, flash frozen in liquid nitrogen, and preserved for future sequencing. Root growth is measured using ImageJ.\nIn order to study the physiological effects of long-term exposure to microbial volatiles the model system Arabidopsis was exposed for […] to diacetyl, a volatile chemical emitted by fermentation by yeast or microbial degradation in the soil associated with roots (R. J. Morcillo et al., EMBO J 39, e102602 (2020); M. A. Farag, et al., Phytochemistry 67, 2262-2268 (2006); and C. M. Ryu et al., P Natl Acad Sci USA 100, 4927-4932 (2003). The Odor Exposure assay consisted of controlled exposure of volatile HDAC inhibiting compounds to model plant Arabidopsis within enclosed aquariums and similar growth conditions. The test compound odor cartridges, consisting of 60×15 mm polystyrene Petri dishes containing 2 ml of indicated concentration in Paraffin Oil, were replaced at the 3.5, 5, and 6-day time mark during the 7-day experiment (FIG. 1A, left). In separate experiments the weight loss from the odor cartridges over time was measured and used it to calculate the concentration of diacetyl in the glass chambers in parts per million (FIG. 1A, right).\nIn order to directly evaluate whether exposure to vapors of the four HDAC-inhibitory VOCs affect root development, we performed a set of experiments using A. thaliana seedlings as before. Solutions for each of the four chemicals on a small petri dish were placed away from the seedlings growing in agar plate and enclosed in glass tank. The Root tips were marked at specified days post treatment start and photographs analyzed. The plants were collected after the 7-day exposure, photographed, and the roots were separated. Detailed measurements were made from the photos using ImageJ and the root length and numbers of lateral roots quantified at day 3.5 and day 7 after start if the treatment (FIG. 1B).\nThe Odor Exposure assay consists of controlled exposure of volatile odor compounds to model plant Arabidopsis within enclosed aquariums and similar growth conditions (23° C. with a 12-hour light/dark cycle). The test compound odor cartridges, consisting of (60×15 mm) polystyrene Petri dishes containing 2 ml of 1% v/v in paraffin oil (PO), were replaced at the 3.5, 5, and 6-day time mark during the 7-day experiment. Root growth was marked during each time point and the plates were imaged. Numbers of true leaves were also counted. The plants are to be collected after the 7-day exposure, photographed, and the leaves/roots carefully dissected separated, flash frozen in liquid nitrogen, and preserved for future sequencing. Root growth is measured using ImageJ."}, "[2]": {"tested_on": "Arabidopsis thaliana roots", "assay": "RNA-Seq of roots of diacetyl vapor exposed Arabidopsis seedlings", "assay_type": "in vivo", "experimental": "In order to understand the molecular changes occurring with the volatile exposure and possibly underlying this developmental phenotype, an RNA-Seq analysis of the roots in diacetyl exposed vs control was performed. A large number of differentially expressed genes (DEGs) was found in the roots of the diacetyl vapor exposed Arabidopsis. 5197 differentially expressed genes (DEGs) (false discovery rate, FDR<0.05) were identified in the root transcriptome of diacetyl-exposed seedlings compared to control.\nA. thaliana plants (Col-0) were grown in an Agar medium were synchronized to germinate using pre-treatment in cold. Exposure experiments were started using plants the plates when they were 11 days old and placed in a 10-gallon glass aquarium as a chamber along with a petri dish containing 1 ml of chemical dissolved in PO or PO alone were placed at the other side of the container. After the desired exposure, the roots were separated, and a Trizol-based RNA isolation was carried out as above. Two biological replicates were performed for each condition, with an average of 68,355,820 reads/replicate, with an average of 95% mapped. Multiplexed libraries were made from total RNA input using the Illumina TruSeq RNA sample preparation kit (v2) and 50 bps single-end sequencing was done using the NextSeq500."}, "[3]": {"tested_on": "Arabidopsis thaliana seedlings", "assay": "Odor Exposure assay, Arabidopsis thaliana seedlings (root and leaf development)", "assay_type": "in vivo", "conditions": "10-fold lower dose (0.1% solution headspace)"}, "A549 Cancer cell line": {"tested_on": "A549 Cancer cell line", "assay": "Cancer cell viability assay, A549", "assay_type": "cell-based, human", "experimental": "Cells were maintained in a 37° C. incubator with 5% CO2 throughout the experiment. Compound stocks were dissolved in 10% DMSO, but final concentrations were made fresh in complete media as needed. 10% DMSO solvent was used as control in complete media. Cells were seeded onto 12-well plates and allowed 12-24 hours until treatment began to allow cells to adhere to wells. This was followed by minimum 5-day treatment of compounds, changing the media with treatment every 48 hours. Cell lines A549, PC3, and SK-MEL-5 were seeded at 8000 cells/well which would provide 80-100% confluency after 6-day growth. SH-SY5Y was seeded at 8000 cells/well then 16,000 cells/well due to slower growth and given at least 10 days for sufficient growth. After allotted growth times, cell counts were performed via Countess™ automated cell counter. All assays were completed with a minimum of triplicate replicates for all conditions and analyzed through GraphPad Prism One-way ANOVA for significance."}, "[4]": {"tested_on": "A. thaliana plants (Col-0)", "assay": "Weed killing assay", "assay_type": "in vivo, Arabidopsis thaliana", "conditions": "1% (volume/volume) in PO, 7 days vapor exposure, 4 weeks recovery", "from_the_text": "Since large scale changes in gene expression occur it is presumed that higher doses of some of the compounds could negatively affect some plants, even causing death. Since Arabidopsis thaliana is also considered a type of weed and goes by the common name Thale cress, it was used as a model to test the weed killing potential at higher doses. In order to evaluate the activity of some of these volatiles in plant killing twenty-seven day old A. thaliana plants (Col-0), that had been transplanted at day 7 to soil, were placed in 10-gallon glass aquarium as chamber along with a petridish containing 2 ml of chemical dissolved in PO at 1% (volume/volume) or PO alone were placed at the other side of the container. Plants were exposed to odor vapors for 7 days and observed for death.\nTwenty-seven day old A. thaliana plants (Col-0), that had been transplanted at day 7 to soil, were placed in 10-gallon glass aquarium as chamber along with a petridish containing 2 ml of chemical dissolved in PO at 1% (volume/volume) or PO alone were placed at the other side of the container. Plants were exposed to odor vapors for 7 days and observed for death."}, "[5]": {"conditions": "7-day exposure, headspace of 1% v/v in Paraffin oil"}}, "note": "Entries after “also recorded” stand apart in the source; their conditions may differ."}
{"smiles": "CC(=O)C(C)=O", "note": "[2,3-butanedione]", "values": [{"measurement": "root growth", "setting": "[1]; 3.5-day exposure, headspace of 1% v/v in Paraffin oil", "value": "significant root growth inhibition"}, {"measurement": "lateral root growth (number of lateral roots)", "setting": "[1]; [5]", "value": "increase; also recorded: notable lateral root promotion; also recorded: significant phenotypic changes"}, {"measurement": "leaf development (number of large / true leaves)", "setting": "[1]; [5]", "value": "changes in the number of true leaf development/growth; also recorded: significant phenotypic changes"}, {"measurement": "lateral root growth (number of lateral roots)", "setting": "[1]; 7-day exposure, headspace of 1% v/v in Paraffin oil, listed as 2,3-butandione", "value": "promoted lateral root growth"}, {"measurement": "leaf development (number of large / true leaves)", "setting": "[1]; 7-day exposure, headspace of 1% v/v in Paraffin oil, listed as diacetyl", "value": "significant decreases"}, {"measurement": "root growth (primary root length)", "setting": "[1]; 7-day exposure, headspace of solution in Paraffin oil", "value": "lack of growth"}, {"measurement": "lateral roots, number relative to control", "setting": "[1]; highest dose, 7-day exposure", "value": "~3", "unit": "times"}, {"measurement": "differentially expressed genes (DEGs) in the root transcriptome", "setting": "[2]; 1% (v/v) headspace, 7 days, FDR<0.05", "value": 5197, "unit": "genes"}, {"measurement": "significantly down-regulated genes in roots", "setting": "[2]; log2 fold-change<-1, FDR<0.05", "value": 2572, "unit": "genes"}, {"measurement": "significantly up-regulated genes in roots", "setting": "[2]; log2 fold-change>1, FDR<0.05", "value": 2625, "unit": "genes"}, {"measurement": "change from solvent treated seedlings in every growth category", "setting": "[3]", "value": "significant change"}, {"measurement": "changes in proliferation, A549", "setting": "A549 Cancer cell line; 100 mM treatment, triplicates", "value": "No significant changes in proliferations"}, {"measurement": "inhibition of cell growth, A549", "setting": "A549 Cancer cell line; 33 micro-molar", "value": "may be some A549 inhibition"}, {"measurement": "plants killed (dead)", "setting": "[4]", "value": "6 of 8"}]}
